Experimental data: ChEMBL document CHEMBL5260852, “Long-Acting Tumor-Activated Prodrug of a TGFβR Inhibitor” (J Med Chem, 2021)
Numbered stars: 1 amine (or outer) side, 2 acyl side, 3 side chain; on linkers, the order of the positions; unused ones are H or OH. Square brackets hold non-standard residues; d marks the D form. Peptide text beside a SMILES is read from it. * marks the point of attachment. X1 = N#Cc1cnc2ccc(-c3c(-c4ccc(F)c(Cl)c4)ncn3CCOCN*)nn12; C18 diacid = O=C(O)CCCCCCCCCCCCCCCCC(=O)*; C16 diacid = O=C(O)CCCCCCCCCCCCCCC(=O)*; γGlu = O=C(O)[C@H](CCC(=O)[*:2])N[*:1]; PABC = O=C(OCc1ccc(N[*:1])cc1)[*:2]; Palmitoyl = CCCCCCCCCCCCCCCC(=O)*; AEEA = NCCOCCOCC(=O)O

Assays:
[1] = Stability in mouse plasma assessed as parent compound remaining after 24 hrs by HPLC-MS analysis; format: ADME, cell-free; settings: read-out: Stability
[2] = AUC in C57BL/6 mouse plasma at 6 mg/kg,iv and measured upto 24 hrs by LC-MS/MS analysis; format: ADME, organism-based; parameters: dose 6 mg/kg, time < 24 hrs, route iv
[3] = Drug concentration in C57BL/6 mouse plasma at 6 mg/kg,iv and measured after 24 hrs by LC-MS/MS analysis; format: ADME, organism-based
[4] = Stability in rat plasma assessed as parent compound remaining after 24 hrs by HPLC-MS analysis; format: ADME, cell-free; settings: read-out: Stability
[5] = Prodrug conversion in tumor of C57BL/6 mouse xenografted mouse MC38 cells assessed as BMS-986260 AUC (0 to 48 hrs) at 8 mg/kg,iv and measured after 48 hrs by LC-MS/MS analysis; format: ADME, organism-based, Neoplasm, MC-38; parameters: dose 8 mg/kg, time 48 hrs, route iv; settings: in vivo
[6] = Prodrug conversion in blood of C57BL/6 mouse xenografted mouse MC38 cells assessed as BMS-986260 Cmax at 8 mg/kg,iv and measured after 48 hrs by LC-MS/MS analysis; format: ADME, organism-based, MC-38; parameters: time 48 hrs, dose 8 mg/kg, route iv; settings: in vivo
[7] = Prodrug conversion in blood of C57BL/6 mouse xenografted mouse MC38 cells assessed as BMS-986260 Tmax at 8 mg/kg,iv and measured after 48 hrs by LC-MS/MS analysis; format: ADME, organism-based, MC-38; settings: in vivo
[8] = Prodrug conversion in C57BL/6 mouse xenografted mouse MC38 cells assessed as BMS-986260 ratio of AUC in tumor to heart at 8 mg/kg,iv and measured after 48 hrs by LC-MS/MS analysis; format: ADME, organism-based, MC-38; settings: in vivo
[9] = Prodrug conversion in C57BL/6 mouse xenografted mouse MC38 cells assessed as BMS-986260 ratio of AUC in heart to blood at 8 mg/kg,iv and measured after 48 hrs by LC-MS/MS analysis; format: ADME, organism-based, MC-38; settings: other tissue
[10] = Prodrug conversion in heart of C57BL/6 mouse xenografted mouse MC38 cells assessed as BMS-986260 AUC (0 to 48 hrs) at 8 mg/kg,iv and measured after 48 hrs by LC-MS/MS analysis; format: ADME, organism-based, MC-38; parameters: time 48 hrs, dose 8 mg/kg, route iv; settings: in vivo
[11] = Prodrug conversion in blood of C57BL/6 mouse xenografted mouse MC38 cells assessed as BMS-986260 AUC (0 to 48 hrs) at 8 mg/kg,iv and measured after 48 hrs by LC-MS/MS analysis; format: ADME, organism-based, MC-38; parameters: dose 8 mg/kg, time 48 hrs, route iv; settings: in vivo
[12] = Prodrug conversion in heart of C57BL/6 mouse xenografted mouse MC38 cells assessed as BMS-986260 Tmax at 8 mg/kg,iv and measured after 48 hrs by LC-MS/MS analysis; format: ADME, organism-based, MC-38; settings: in vivo
[13] = Prodrug conversion in tumor of C57BL/6 mouse xenografted mouse MC38 cells assessed as BMS-986260 Tmax at 8 mg/kg,iv and measured after 48 hrs by LC-MS/MS analysis; format: ADME, organism-based, Neoplasm, MC-38; settings: in vivo
[14] = Prodrug conversion in C57BL/6 mouse xenografted mouse MC38 cells assessed as BMS-986260 ratio of AUC in tumor to blood at 8 mg/kg,iv and measured after 48 hrs by LC-MS/MS analysis; format: ADME, organism-based, MC-38; settings: tumour
[15] = Prodrug conversion in heart of C57BL/6 mouse xenografted mouse MC38 cells assessed as BMS-986260 Cmax at 8 mg/kg,iv and measured after 48 hrs by LC-MS/MS analysis; format: ADME, organism-based, MC-38; parameters: time 48 hrs, dose 8 mg/kg, route iv; settings: in vivo
[16] = Prodrug conversion in tumor of C57BL/6 mouse xenografted mouse MC38 cells assessed as BMS-986260 Cmax at 8 mg/kg,iv and measured after 48 hrs by LC-MS/MS analysis; format: ADME, organism-based, Neoplasm, MC-38; parameters: dose 8 mg/kg, time 48 hrs, route iv; settings: in vivo
[17] = Prodrug conversion in heart of C57BL/6 mouse xenografted mouse MC38 cells assessed as BMS-986260 Cmax at 8 mg/kg,iv and measured after 72 hrs by LC-MS/MS analysis; format: ADME, organism-based, MC-38; parameters: dose 8 mg/kg, time 72 hrs, route iv; settings: in vivo
[18] = Prodrug conversion in blood of C57BL/6 mouse xenografted mouse MC38 cells assessed as BMS-986260 ratio of AUC in tumor to heart at 8 mg/kg,iv and measured after 72 hrs by LC-MS/MS analysis; format: ADME, organism-based, MC-38; settings: in vivo
[19] = Prodrug conversion in heart of C57BL/6 mouse xenografted mouse MC38 cells assessed as BMS-986260 Tmax at 8 mg/kg,iv and measured after 72 hrs by LC-MS/MS analysis; format: ADME, organism-based, MC-38; settings: in vivo
[20] = Prodrug conversion in blood of C57BL/6 mouse xenografted mouse MC38 cells assessed as BMS-986260 AUC (0 to 72 hrs) at 8 mg/kg,iv and measured after 72 hrs by LC-MS/MS analysis; format: ADME, organism-based, MC-38; parameters: time 72 hrs, dose 8 mg/kg, route iv; settings: in vivo
[21] = Prodrug conversion in tumor of C57BL/6 mouse xenografted mouse MC38 cells assessed as BMS-986260 Cmax at 8 mg/kg,iv and measured after 72 hrs by LC-MS/MS analysis; format: ADME, organism-based, Neoplasm, MC-38; parameters: dose 8 mg/kg, time 72 hrs, route iv; settings: in vivo
[22] = Prodrug conversion in blood of C57BL/6 mouse xenografted mouse MC38 cells assessed as BMS-986260 Tmax at 8 mg/kg,iv and measured after 72 hrs by LC-MS/MS analysis; format: ADME, organism-based, MC-38; settings: in vivo
[23] = Prodrug conversion in blood of C57BL/6 mouse xenografted mouse MC38 cells assessed as BMS-986260 ratio of AUC in tumor to blood at 8 mg/kg,iv and measured after 72 hrs by LC-MS/MS analysis; format: ADME, organism-based, MC-38; settings: tumour
[24] = Prodrug conversion in heart of C57BL/6 mouse xenografted mouse MC38 cells assessed as BMS-986260 AUC (0 to 72 hrs) at 8 mg/kg,iv and measured after 72 hrs by LC-MS/MS analysis; format: ADME, organism-based, MC-38; parameters: time 72 hrs, dose 8 mg/kg, route iv; settings: in vivo
[25] = Prodrug conversion in tumor of C57BL/6 mouse xenografted mouse MC38 cells assessed as BMS-986260 Tmax at 8 mg/kg,iv and measured after 72 hrs by LC-MS/MS analysis; format: ADME, organism-based, Neoplasm, MC-38; settings: in vivo
[26] = Prodrug conversion in blood of C57BL/6 mouse xenografted mouse MC38 cells assessed as BMS-986260 Cmax at 8 mg/kg,iv and measured after 72 hrs by LC-MS/MS analysis; format: ADME, organism-based, MC-38; parameters: dose 8 mg/kg, time 72 hrs, route iv; settings: in vivo
[27] = Prodrug conversion in tumor of C57BL/6 mouse xenografted mouse MC38 cells assessed as BMS-986260 AUC (0 to 72 hrs) at 8 mg/kg,iv and measured after 72 hrs by LC-MS/MS analysis; format: ADME, organism-based, Neoplasm, MC-38; parameters: time 72 hrs, dose 8 mg/kg, route iv; settings: in vivo
[28] = Prodrug conversion in C57BL/6 mouse xenografted mouse MC38 cells assessed as BMS-986260 ratio of AUC in heart to blood at 8 mg/kg,iv and measured after 72 hrs by LC-MS/MS analysis; format: ADME, organism-based, MC-38; settings: other tissue

CC(=O)N[C@@H](CC(C)C)C(=O)N[C@@H](CO)C(=O)NCC(=O)N[C@@H](CCCCN)C(=O)Nc1ccc(COC(=O)NCOCCn2cnc(-c3ccc(F)c(Cl)c3)c2-c2ccc3ncc(C#N)n3n2)cc1 (Ac-LSGK[PABC]-X1)
remaining at 24 h [1]: 6%

CC(C)C[C@H](NC(=O)COCCOCCNC(=O)COCCOCCNC(=O)CC[C@H](NC(=O)CCCCCCCCCCCCCCC(=O)O)C(=O)O)C(=O)N[C@@H](CO)C(=O)NCC(=O)N[C@@H](CCCCN)C(=O)Nc1ccc(COC(=O)NCOCCn2cnc(-c3ccc(F)c(Cl)c3)c2-c2ccc3ncc(C#N)n3n2)cc1 ({C16 diacid-γGlu-AEEA-AEEA}-LSGK[PABC]-X1)
remaining at 24 h [1]: 54%

CC(C)C[C@H](NC(=O)COCCOCCNC(=O)COCCOCCNC(=O)COCCOCCNC(=O)CC[C@H](NC(=O)CCCCCCCCCCCCCCCCC(=O)O)C(=O)O)C(=O)N[C@@H](CO)C(=O)NCC(=O)N[C@@H](CCCCN)C(=O)Nc1ccc(COC(=O)NCOCCn2cnc(-c3ccc(F)c(Cl)c3)c2-c2ccc3ncc(C#N)n3n2)cc1 ({C18 diacid-γGlu-AEEA-AEEA-AEEA}-LSGK[PABC]-X1)
remaining at 24 h [1]: 91%
AUC at 24 h [2]: 270 µM·h
concentration at 24 h [3]: 5200 nM
remaining at 24 h [4]: 76%

CC(C)C[C@H](NC(=O)COCCOCCNC(=O)COCCOCCNC(=O)CC[C@H](NC(=O)CCCCCCCCCCCCCCCCC(=O)O)C(=O)O)C(=O)N[C@@H](CO)C(=O)NCC(=O)N[C@@H](CCCCN)C(=O)Nc1ccc(COC(=O)NCOCCn2cnc(-c3ccc(F)c(Cl)c3)c2-c2ccc3ncc(C#N)n3n2)cc1 ({C18 diacid-γGlu-AEEA-AEEA}-LSGK[PABC]-X1)
remaining at 24 h [1]: 79%
AUC [5]: 6.6 µM·h
Cmax [6]: 160 nM
AUC at 24 h [2]: 348 µM·h
Tmax [7]: 4 h
Ratio AUC [8]: 1.2
Ratio AUC [9]: 1.8
AUC [10]: 5.4 µM·h
concentration at 24 h [3]: > 1000 nM
remaining at 24 h [4]: 84%
AUC [11]: 3 µM·h
Tmax [12]: 8 h
Tmax [13]: 1 h
Ratio AUC [14]: 2.2
Cmax [15]: 300 nM
Cmax [16]: 470 nM

CC(C)C[C@H](NC(=O)COCCOCCNC(=O)CC[C@H](NC(=O)CCCCCCCCCCCCCCCCC(=O)O)C(=O)O)C(=O)N[C@@H](CO)C(=O)NCC(=O)N[C@@H](CCCCN)C(=O)Nc1ccc(COC(=O)NCOCCn2cnc(-c3ccc(F)c(Cl)c3)c2-c2ccc3ncc(C#N)n3n2)cc1 ({C18 diacid-γGlu-AEEA}-LSGK[PABC]-X1)
remaining at 24 h [1]: 79%
concentration at 24 h [3]: > 1000 nM
remaining at 24 h [4]: 81%

CC(C)C[C@H](NC(=O)COCCOCCNC(=O)COCCOCCNC(=O)CC[C@H](NC(=O)CC[C@H](NC(=O)CC[C@H](NC(=O)CCCCCCCCCCCCCCCCC(=O)O)C(=O)O)C(=O)O)C(=O)O)C(=O)N[C@@H](CO)C(=O)NCC(=O)N[C@@H](CCCCN)C(=O)Nc1ccc(COC(=O)NCOCCn2cnc(-c3ccc(F)c(Cl)c3)c2-c2ccc3ncc(C#N)n3n2)cc1 ({C18 diacid-γGlu-γGlu-γGlu-AEEA-AEEA}-LSGK[PABC]-X1)
Cmax [17]: 270 nM
remaining at 24 h [1]: 96%
Ratio AUC [18]: 1.6
AUC at 24 h [2]: 270 µM·h
concentration at 24 h [3]: 5200 nM
Tmax [19]: 8 h
AUC [20]: 4.6 µM·h
Cmax [21]: 310 nM
remaining at 24 h [4]: 93%
Tmax [22]: 1 h
Ratio AUC [23]: 2.8
AUC [24]: 8.4 µM·h
Tmax [25]: 8 h
Cmax [26]: 140 nM
AUC [27]: 13 µM·h
Ratio AUC [28]: 1.8

CC(C)C[C@H](NC(=O)CC[C@H](NC(=O)CCCCCCCCCCCCCCCCC(=O)O)C(=O)O)C(=O)N[C@@H](CO)C(=O)NCC(=O)N[C@@H](CCCCN)C(=O)Nc1ccc(COC(=O)NCOCCn2cnc(-c3ccc(F)c(Cl)c3)c2-c2ccc3ncc(C#N)n3n2)cc1 ({C18 diacid-γGlu}-LSGK[PABC]-X1)
remaining at 24 h [1]: 84%
concentration at 24 h [3]: > 1000 nM
remaining at 24 h [4]: 77%

CCCCCCCCCCCCCCCC(=O)N[C@@H](CCC(=O)N[C@@H](CC(C)C)C(=O)N[C@@H](CO)C(=O)NCC(=O)N[C@@H](CCCCN)C(=O)Nc1ccc(COC(=O)NCOCCn2cnc(-c3ccc(F)c(Cl)c3)c2-c2ccc3ncc(C#N)n3n2)cc1)C(=O)O ({Palmitoyl-γGlu}-LSGK[PABC]-X1)
AUC at 24 h [2]: 40.9 µM·h
